The source of these data is ChEMBL document CHEMBL3639243, “Oxadiazole derivative having endothelial lipase inhibitory activity” (2014).

This experiment concerns the target T1, Endothelial lipase (Homo sapiens, UniProt Q9Y5X9).
T1 sequence (Q9Y5X9 whole entry): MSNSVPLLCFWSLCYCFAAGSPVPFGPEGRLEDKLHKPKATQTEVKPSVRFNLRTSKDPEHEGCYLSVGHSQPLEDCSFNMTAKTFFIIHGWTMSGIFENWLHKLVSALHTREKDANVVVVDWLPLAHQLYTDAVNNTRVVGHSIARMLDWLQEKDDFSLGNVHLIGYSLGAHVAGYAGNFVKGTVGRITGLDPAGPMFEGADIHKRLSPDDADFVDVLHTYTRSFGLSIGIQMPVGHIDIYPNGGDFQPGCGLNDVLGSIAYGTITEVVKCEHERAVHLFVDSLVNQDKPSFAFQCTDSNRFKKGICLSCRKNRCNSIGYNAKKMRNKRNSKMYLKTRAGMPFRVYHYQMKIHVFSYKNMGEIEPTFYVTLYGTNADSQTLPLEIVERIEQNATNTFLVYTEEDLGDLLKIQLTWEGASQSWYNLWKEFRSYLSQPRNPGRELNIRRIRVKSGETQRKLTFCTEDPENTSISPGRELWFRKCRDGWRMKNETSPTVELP
Put plainly: Inhibition Assay: After the present compound dissolved in DMSO was added to become 0.5% DMSO to the reaction buffer consisting of 20 mM tris hydrochloric acid (pH7.4), bovine serum albumin (0.5%), calcium chloride (4 mM), sodium chloride (150 mM) and human HDL (2 mg/ml), the EL enzyme was added (total volume was 20 μl). After 4-hour reaction at 37 C., non-esterified fatty acid (NEFA) generated from HDL by EL was measured with a commercially available assay kit and the amount of NEFA was used as an index of enzyme activity. Considering the enzyme activity without the inhibitor as a control value, the inhibition rate of each concentration of the present compound was calculated, and 50% inhibitory concentration (IC50 value) was calculated from an inhibition curve.

In the case of `N#CC1(NC(=O)Cc2nnc(Cc3nc4ccc(-c5ccc(Cl)s5)c(F)c4s3)o2)CC1`, the IC50 is 14 nM.
